We go through 30 compounds from patent US8404673B2, “Carbocyclic GlyT1 receptor antagonists” (Hoffmann-La Roche Inc., priority 2009, dated 2013).

The first assay concerns the target T1, mGlyT-1b (Mus musculus, UniProt P28571).
T1 construct: host or cells: Flp-in-CHO
T1 sequence (P28571 1-651 isoform P28571-2): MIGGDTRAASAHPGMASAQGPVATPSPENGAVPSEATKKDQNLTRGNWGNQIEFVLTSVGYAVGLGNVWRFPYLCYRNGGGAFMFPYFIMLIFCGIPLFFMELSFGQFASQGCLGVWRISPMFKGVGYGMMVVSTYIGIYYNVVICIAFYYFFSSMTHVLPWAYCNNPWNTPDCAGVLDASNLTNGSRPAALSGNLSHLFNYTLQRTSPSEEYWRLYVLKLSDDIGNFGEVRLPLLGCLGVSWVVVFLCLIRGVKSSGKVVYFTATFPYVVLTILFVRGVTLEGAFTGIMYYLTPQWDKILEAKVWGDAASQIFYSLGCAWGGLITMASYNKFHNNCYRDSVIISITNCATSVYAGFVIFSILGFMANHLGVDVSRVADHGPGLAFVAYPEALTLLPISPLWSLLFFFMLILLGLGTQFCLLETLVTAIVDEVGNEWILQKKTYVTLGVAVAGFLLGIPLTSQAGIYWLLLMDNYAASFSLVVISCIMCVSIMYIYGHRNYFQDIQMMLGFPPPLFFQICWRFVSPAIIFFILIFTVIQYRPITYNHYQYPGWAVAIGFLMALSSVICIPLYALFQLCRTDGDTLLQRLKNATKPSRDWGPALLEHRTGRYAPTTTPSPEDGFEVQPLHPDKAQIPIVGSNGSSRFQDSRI
Put plainly: Glycine Uptake Inhibition Assay (mGlyT-1b). Conditions: IC50 data. Type of assay: cell-based.
`CCc1cc(C(F)(F)F)cc(C(F)(F)F)c1C(=O)N[C@H]1CCC[C@H]1N1CCCC1` (single isomer, unassigned) [Example 141, (+)-2-Ethyl-N-(2-pyrrolidin-1-yl-cyclopentyl)-4,6-bis-trifluoromethyl-benzamide] came in with an IC50 of 43.5 nM.
In turn, `COc1cc(C(F)(F)F)cc(Br)c1C(=O)NC1CCCC1N1CCCC1` (single isomer, unassigned; (-)) [Example 114, (−)-2-Bromo-6-methoxy-N-cis-(2-pyrrolidin-1-yl-cyclopentyl)-4-trifluoromethyl-benzamide] registered an IC50 of 66.8 nM.
In turn, `CCc1cccc(C)c1C(=O)N[C@H]1CCC[C@H]1N1CCCC1` (relative stereo) [Example 94, cis-2-Ethyl-6-methyl-N-(2-pyrrolidin-1-yl-cyclopentyl)-benzamide] returned an IC50 of 98.4 nM.
`Cc1cc(C(F)(F)F)cc(C(F)(F)F)c1C(=O)N[C@H]1CCC[C@H]1N1CCCC1` (relative stereo) [Example 103, cis-2-Methyl-N-(2-pyrrolidin-1-yl-cyclopentyl)-4,6-bis-trifluoromethyl-benzamide] registered an IC50 of 24.9 nM.
As for `O=C(N[C@@H]1CCC[C@@H]1N1CCCC1)c1c(F)cc(C(F)(F)F)cc1C(F)(F)F` (single isomer, unassigned) [Example 126, (−)-cis-2-Fluoro-N-(2-pyrrolidin-1-yl-cyclopentyl)-4,6-bis-trifluoromethyl-benzamide], the midpoint of inhibition, the IC50, lay at 74 nM.
The compound `CCc1cc(C(F)(F)F)cc(OC)c1C(=O)N[C@H]1CCC[C@H]1N1CCCC1` (relative stereo) [Example 140, 2-Ethyl-6-methoxy-N-((cis)-2-pyrrolidin-1-yl-cyclopentyl)-4-trifluoromethyl-benzamide] came in with an IC50 of 55.4 nM.
`O=C(N[C@H]1CCC[C@H]1N1CCCC1)c1c(Cl)cc(C(F)(F)F)cc1Cl` (relative stereo) [Example 108, cis-2,6-Dichloro-N-(2-pyrrolidin-1-yl-cyclopentyl)-4-trifluoromethyl-benzamide]: it took 88.2 nM to reach half-maximal inhibition (IC50).
Same read-out and setting: the value for `O=C(N[C@H]1CCC[C@H]1N1CCCC1)c1ccc(C(F)(F)F)cc1C1CC1` (racemic) [Example 91, 2-Cyclopropyl-cis-N-(2-pyrrolidin-1-yl-cyclopentyl)-4-trifluoromethyl-benzamide] was 45.3 nM; that for `O=C(NC1CCCC1N1CCCC1)c1c(C2CC2)cc(C(F)(F)F)cc1C(F)(F)F` (single isomer, unassigned; (-)) [Example 138, (−)-2-Cyclopropyl-N-((1R,2, or 1S,2R)-2-pyrrolidin-1-yl-cyclopentyl)-4,6-bis-trifluoromethyl-benzamide] was 67.9 nM; that for `O=C(NC1CCCC1N1CCCC1)c1c(Cl)cc(C(F)(F)F)cc1Cl` (single isomer, unassigned; (-)) [Example 129, (−)-2,6-Dichloro-N-cis-(2-pyrrolidin-1-yl-cyclopentyl)-4-trifluoromethyl-benzamide] was 64.5 nM.
The compound `CCc1cccc(C2CC2)c1C(=O)N[C@H]1CCC[C@H]1N1CCCC1` (racemic) [Example 98, cis-2-Cyclopropyl-6-ethyl-N-(2-pyrrolidin-1-yl-cyclopentyl)-benzamide] returned an IC50 of 80.1 nM.
The compound `COc1cc(C(F)(F)F)cc(SC)c1C(=O)N[C@@H]1CCC[C@@H]1N1CCCC1` (single isomer, unassigned) [Example 59, (+)-2-Methoxy-6-methylsulfanyl-N-(2-pyrrolidin-1-yl-cyclopentyl)-4-trifluoromethyl-benzamide] yielded an IC50 of 61.1 nM.
Still for that read-out and setting: the value for `CSc1cc(C(F)(F)F)cc(C(F)(F)F)c1C(=O)N[C@@H]1CCC[C@@H]1N1CCCC1` (single isomer, unassigned) [Example 118, (+)-cis-2-Methylsulfanyl-N-(2-pyrrolidin-1-yl-cyclopentyl)-4,6-bis-trifluoromethyl-benzamide] was 60 nM.
Still for that read-out and setting: the value for `COc1cc(C(F)(F)F)cc(C2CC2)c1C(=O)N[C@H]1CCC[C@H]1N1CCCC1` (relative stereo) [Example 131, 2-Cyclopropyl-6-methoxy-N-((cis)-2-pyrrolidin-1-yl-cyclopentyl)-4 trifluoromethyl-benzamide] was 19.9 nM; that for `O=C(N[C@H]1CCC[C@H]1N1CCCC1)c1c(C2CC2)cc(C(F)(F)F)cc1C(F)(F)F` (relative stereo) [Example 130, 2-Cyclopropyl-N-((cis)-2-pyrrolidin-1-yl-cyclopentyl)-4,6-bis-trifluoromethyl-benzamide] was 35.4 nM.
In turn, `COc1cc(C(F)(F)F)cc(Br)c1C(=O)NC1CCCC1N1CCCC1` (single isomer, unassigned; (+)) [Example 115, (+)-2-Bromo-6-methoxy-N-cis-(2-pyrrolidin-1-yl-cyclopentyl)-4-trifluoromethyl-benzamide] came in with an IC50 of 71.4 nM.
Still for that read-out and setting: for `CSc1cc(C(F)(F)F)cc(C(F)(F)F)c1C(=O)N[C@@H]1CCC[C@@H]1N1CCCC1` (single isomer, unassigned) [Example 119, (−)-cis-2-Methylsulfanyl-N-(2-pyrrolidin-1-yl-cyclopentyl)-4,6-bis-trifluoromethyl-benzamide] the value was 65.4 nM; for `O=C(N[C@H]1CCC[C@H]1N1CCCC1)c1ccc(C(F)(F)F)cc1C(F)(F)F` (single isomer, unassigned) [Example 78, (−)-N-(2-Pyrrolidin-1-yl-cyclopentyl)-2,4-bis-trifluoromethyl-benzamide], 75.4 nM.
`CCc1cc(C(F)(F)F)cc(C(F)(F)F)c1C(=O)NC1CCCC1N1CCCC1` (single isomer, unassigned) [Example 142] gave an IC50 of 68 nM.
The same measure, in the same setting: for `O=C(NC1CCCC1N1CCCC1)c1ccc(C(F)(F)F)cc1C1CC1` (single isomer, unassigned; (+)) [Example 97, (+)-2-Cyclopropyl-N-cis-(-2-pyrrolidin-1-yl-cyclopentyl)-4-trifluoromethyl-benzamide] the value was 82.4 nM; for `O=C(NC1CCCC1N1CCCC1)c1c(C2CC2)cc(C(F)(F)F)cc1C(F)(F)F` (single isomer, unassigned; (+)) [Example 139, (+)-2-Cyclopropyl-N-((1R,2S or 1S,2R)-2-pyrrolidin-1-yl-cyclopentyl)-4,6-bis-trifluoromethyl-benzamide], 32.5 nM; for `CSc1cc(C(F)(F)F)ccc1C(=O)N[C@@H]1CCC[C@@H]1N1CCCC1` (single isomer, unassigned) [Example 84, (+)-2-Methylsulfanyl-N-(2-pyrrolidin-1-yl-cyclopentyl)-4-trifluoromethyl-benzamide], 89 nM.
The compound `O=C(NC1CCCC1N1CCCC1)c1c(Cl)cc(C(F)(F)F)cc1Cl` (single isomer, unassigned; (+)) [Example 128, (+)-2,6-Dichloro-N-cis-(2-pyrrolidin-1-yl-cyclopentyl)-4-trifluoromethyl-benzamide] had an IC50 of 69.1 nM.
`CSc1cc(C(F)(F)F)cc(C(F)(F)F)c1C(=O)N[C@H]1CCC[C@H]1N1CCCC1` (racemic) [Example 104, cis-2-Methylsulfanyl-N-(2-pyrrolidin-1-yl-cyclopentyl)-4,6-bis-trifluoromethyl-benzamide] returned an IC50 of 18.9 nM.
The same measure, in the same setting: for `COc1cc(C(F)(F)F)cc(SC)c1C(=O)N[C@@H]1CCC[C@@H]1N1CCCC1` (racemic) [Example 55, 2-Methoxy-6-methylsulfanyl-N-((1RS,2SR)-2-pyrrolidin-1-yl-cyclopentyl)-4-trifluoromethyl-benzamide] the value was 84.6 nM.

Staying with this assay, now noted: [3H]-glycine uptake, Flp-in-CHO cells transfected with mGlyT-1b cDNA, 20 min preincubation at 22° C.; read-out: IC50 data.
As for `CSc1cc(C(F)(F)F)cc(C(F)(F)F)c1C(=O)N[C@H]1CCC[C@H]1NC1CCCC1` (racemic) [Example 134, N-((cis)-2-Cyclopentylamino-cyclopentyl)-2-methylsulfanyl-4,6-bis-trifluoromethyl-benzamide], the IC50 was 95.7 nM.

The same assay, now with this note: read-out: IC50 data.
Turning to `O=C(NC1CCCC1NC1CCCC1)c1ccc(C(F)(F)F)cc1C1CC1` (single isomer, unassigned; (-)) [Example 110, (−)-cis-N-2-Cyclopentylamino-cyclopentyl)-2-cyclopropyl-4-trifluoromethyl-benzamide], the IC50 is 54.3 nM.
In the case of `COc1cc(C(F)(F)F)cc(SC)c1C(=O)N[C@@H]1CCC[C@@H]1NC1CCC1` (single isomer, unassigned) [Example 62, (−)-cis-N-(-2-Cyclobutylamino-cyclopentyl)-2-methoxy-6-methylsulfanyl-4-trifluoromethyl-benzamide], the IC50 was found to be 31.6 nM.
For the compound `COc1cc(C(F)(F)F)cc(SC)c1C(=O)N[C@@H]1CCC[C@@H]1NC1CCCC1` (racemic) [Example 65, N-((1RS,2SR)-2-Cyclopentylamino-cyclopentyl)-2-methoxy-6-methylsulfanyl-4-trifluoromethyl-benzamide], the IC50 turned out to be 56.4 nM.
On to `CCc1cc(C(F)(F)F)ccc1C(=O)N[C@H]1CCC[C@H]1NC1CCCC1` (single isomer, unassigned) [Example 92, (+)-N-(2-Cyclopentylamino-cyclopentyl)-2-ethyl-4-trifluoromethyl-benzamide], for which the IC50 was determined as 95.4 nM.
